test system: carrageenan-induced paw edema; assay: rat carrageenan edema test (paw volume, mercury plethysmography); assay type: in vivo, male Sprague-Dawley or Charles River rats; conditions: 150 mg/kg oral, one hour prior to 1% carrageenan, read three hours after carrageenan, vs control, *p ≤ 0.05, **p ≤ 0.01
Experimental: The anti-inflammatory activity of the claimed compounds was established by direct measurement of the effect of structurally representative compounds in the rat carrageenan edema test. This standard pharmacological procedure for determining antiinflammatory effects of a compound is performed by subcutaneous injection in the right paw of 6 animals (140-180 grams, male Sprague-Dawley or Charles River rats) with 0.1 milliliter of 1 percent carrageenan at zero time. The compounds representative of this invention are administered orally one hour prior to carrageenan at 150 milligrams per kilogram. The paw volume (edema in milliliters) is determined at zero time and three hours after carrageenan administration by mercury plethysmographic readings (milliliter) of the paw. From the change in paw volume compared to control, the percent inhibition of edema is determined. The results obtained with the compounds of Examples 1, 9, 17 and 18, which are representative of the other compounds of the invention, are as follows: […]

SMILES | % Inhibition of Edema [%]
O=C1Nc2ccc(Cl)cc2Cn2nnnc21 [Example 1, 7-Chloro-5,10-dihydro-11H-tetrazolo[5,1-c][1,4]-benzodiazepine-11-one] | 39
S=C1Nc2ccc(Cl)cc2Cn2nnnc21 [Example 9, 5,10-Dihydro-7-Chloro-11H-tetrazolo[5,1-c][1,4]-benzodiazepine-11-thione] | 42
CN1CCN(C2=Nc3cc(Cl)ccc3Cn3nnnc32)CC1 [Example 17, 8-Chloro-11-(4-methyl-1-piperazinyl)-5H-tetrazolo[5,1-c][1,4]benzodiazepine] | 42
Cc1ccc2c(c1)Cn1nnnc1C(N1CCN(C)CC1)=N2 [Example 18, 7-Methyl-11-(4-methyl-1-piperazinyl)-5H-tetrazolo[5,1-c][1,4]benzodiazepine] | 33
